{"source": "patent US20020138123A1", "about": "“Medical electrical leads and indwelling catheters with enhanced biocompatibility and biostability” (Medtronic, Inc., priority 1998, published 2002)", "format_in_all_cases": "cell-based", "key": {"human Mo/MØs": {"system": "human Mo/MØs", "assay": "Morphology of Mo/MØ monolayers on polyetherurethane cultured with DSP (OM, SEM)", "details": "human Mo/MØs on PEU cultured with DSP in media, versus standard media", "description": "Blood was anticoagulated with 2 units/ml sodium heparin (Upjohn Co., Kalamazoo, Mich.). Mononuclear cells (lymphocytes, monocytes) were isolated within 15 minutes by a one-step density gradient centrifugation procedure using Isopaque-1077 (a density gradient solution) according to a modified Boyum's method (Boyum et al., Blood Separation and Plasma Fractionation, 217-239, Wiley-Liss, Inc. (1991)). The mononuclear cells were harvested and washed twice with cold Hanks balanced salt solution (HBSS) without Ca^2+ and Mg^2+ to minimize cell aggregation. The cells were then resuspended in standard media (RPMI-1640, 10% Fetal bovine serum, 0.2M L-glutamine, 10 Ul/ml Penicillin-G, and 0.1 mg/ml Streptomycin). The cell suspension was seeded into several plastic tissue culture flasks and incubated in the presence of 5% CO2 at 37° C. for 1 hour (Ackerman et al., J. Immunol., 20, 1372-1374 (1978)). After this incubation, adherent (monocytes) were gently scrapped from the surface and resuspended in standard media. Nonadherent cells (lymphocytes) contained in the supernatant were recovered into sterile tubes, and the remaining nonadherent cells washed off with cold HBSS. […] The polymer surfaces were also evaluated using SEM following the 10-day treatment with FeCl2. […]"}, "IL-1α": {"system": "IL-1α", "assay": "Cytokine analysis, in vitro expression of IL-1α", "details": "human primary monocytes; DEX 2.5, 0.25, 0.025 μg/ml; methotrexate 50, 5, 0.5 μg/ml; dose- and incubation time-dependent", "description": "(§1) In order to assess the in vitro expression of IL-1α and IL-8, human primary monocytes were incubated with various concentrations of DEX (2.5, 0.25, and 0.025 μg/ml) and methotrexate (50, 5, and 0.5 μg/ml)."}, "IL-8": {"system": "IL-8", "assay": "Cytokine analysis, in vitro expression of IL-8", "details": "human primary monocytes; DEX 2.5, 0.25, 0.025 μg/ml; methotrexate 50, 5, 0.5 μg/ml; dose- and incubation time-dependent", "description": "as §1"}}, "data": [{"molecule": "C[C@@H]1C[C@H]2[C@@H]3CCC4=CC(=O)C=C[C@]4(C)[C@@]3(F)[C@@H](O)C[C@]2(C)[C@@]1(O)C(=O)COP(=O)(O)O", "note": "[DSP, dexamethasone sodium phosphate]", "values": [{"measurement": "cell size of Mo/MØ monolayers (OM)", "setting": "human Mo/MØs", "value": "no increase in cell size"}]}, {"molecule": "CN(Cc1cnc2nc(N)nc(N)c2n1)c1ccc(C(=O)N[C@@H](CCC(=O)O)C(=O)O)cc1", "note": "[methotrexate]", "values": [{"measurement": "IL-1 inhibition", "setting": "IL-1α", "value": "higher rate of IL-1 and IL-8 inhibition"}, {"measurement": "IL-8 inhibition", "setting": "IL-8", "value": "higher rate of IL-1 and IL-8 inhibition"}]}]}
